BindingDB's records for patent US20240294545 (Cspc Zhongqi Pharmaceutical Technology (Shijiazhuang), 2024)

Legend:
[1] = target: Serine/threonine-protein kinase ATR (Homo sapiens, UniProt Q13535); assay: Inhibitory Activity of Compounds on ATR
Procedure: (1) Preparation of 1 kinase buffer and reaction termination solution1) 1 kinase buffer50 mM HEPES, pH 7.50.0015% Brij-[…] MnCl22) Reaction termination solution100 mM HEPES, pH 7.50.015% Brij-350.2% Coating Reagent #350 mM EDTA(2) Preparation of test compound1) The compound was dissolved in DMSO to yield a stock solution. Before the assay, to a 96-well plate, 30 uL of a 10 mM stock solution was taken and added with 60 uL of DMSO. […] 10 µL of the 2 substrate solution was taken to each well of the test plate.3) Kinase reaction:After incubation at 28 C. for a certain time, 30 uL of the reaction termination solution was added to terminate the enzymatic reaction.(5) Reading of the reaction wells(6) Calculation of inhibitory rates by means of curve fitting to the read values.% inhibitory rate=(max+-sample value)/(max+-min)*100; wherein max represents the value of the total reaction well with DMSO but no compound; min represents the value of the blank control well without enzyme and compound.

[2] = target: Serine-protein kinase ATM (Homo sapiens, UniProt Q13315); assay: Inhibitory Activities of Compounds on ATM
Procedure: To a 96-well plate, 98 μL of DMSO and 2 μL of the 10 mM stock solution were added and mixed evenly so that the concentration of the solution was 200 μM.

[3] = target: DNA-dependent protein kinase catalytic subunit (Homo sapiens, UniProt P78527); assay: Inhibitory Activities of Compounds on DNA-PK Kinase: ADP-Glo Kinase Assay
Procedure: (1) Preparation of 1× kinase buffer40 mM Tris, pH 7.50.0055% Brij-3520 mM MgCl20.05 mM DTT(2) Preparation of test compound1) The compound was dissolved in DMSO to yield a stock solution. Before the assay, the stock solution of the compound was diluted with DMSO to yield a 100× solution at a concentration that is 100 times a target concentration for assay. […] The test plate was shaken for mixing evenly.3) Kinase reactionEach well of the test plate was covered and incubated at room temperature for 3 h.(4) Kinase detection1) The ADP-Glo reagent was equilibrated at room temperature.2) 5 μL of ADP-Glo reagent was added to each well of the test plate to terminate the reaction.3) The plate was centrifuged for a short time to mix evenly, shaken gently, and equilibrated for 120 min.4) 10 μL of kinase detection reagent was added to each well, with shaking for 1 min, after equilibrating for 30 min, […] detection was performed.(5) Reading of the reaction wells(6) Calculation of inhibitory rates by means of curve fitting to the read values.

[4] = target: T1, Phosphatidylinositol 4,5-bisphosphate 3-kinase catalytic subunit delta isoform (Homo sapiens, UniProt O00329); assay: Inhibitory Activities of Compounds on PI3Kα, PI3Kβ, PI3Kγ, and PI3Kδ Kinase: ADP-Glo Kinase Assay
T1 sequence (O00329 whole entry): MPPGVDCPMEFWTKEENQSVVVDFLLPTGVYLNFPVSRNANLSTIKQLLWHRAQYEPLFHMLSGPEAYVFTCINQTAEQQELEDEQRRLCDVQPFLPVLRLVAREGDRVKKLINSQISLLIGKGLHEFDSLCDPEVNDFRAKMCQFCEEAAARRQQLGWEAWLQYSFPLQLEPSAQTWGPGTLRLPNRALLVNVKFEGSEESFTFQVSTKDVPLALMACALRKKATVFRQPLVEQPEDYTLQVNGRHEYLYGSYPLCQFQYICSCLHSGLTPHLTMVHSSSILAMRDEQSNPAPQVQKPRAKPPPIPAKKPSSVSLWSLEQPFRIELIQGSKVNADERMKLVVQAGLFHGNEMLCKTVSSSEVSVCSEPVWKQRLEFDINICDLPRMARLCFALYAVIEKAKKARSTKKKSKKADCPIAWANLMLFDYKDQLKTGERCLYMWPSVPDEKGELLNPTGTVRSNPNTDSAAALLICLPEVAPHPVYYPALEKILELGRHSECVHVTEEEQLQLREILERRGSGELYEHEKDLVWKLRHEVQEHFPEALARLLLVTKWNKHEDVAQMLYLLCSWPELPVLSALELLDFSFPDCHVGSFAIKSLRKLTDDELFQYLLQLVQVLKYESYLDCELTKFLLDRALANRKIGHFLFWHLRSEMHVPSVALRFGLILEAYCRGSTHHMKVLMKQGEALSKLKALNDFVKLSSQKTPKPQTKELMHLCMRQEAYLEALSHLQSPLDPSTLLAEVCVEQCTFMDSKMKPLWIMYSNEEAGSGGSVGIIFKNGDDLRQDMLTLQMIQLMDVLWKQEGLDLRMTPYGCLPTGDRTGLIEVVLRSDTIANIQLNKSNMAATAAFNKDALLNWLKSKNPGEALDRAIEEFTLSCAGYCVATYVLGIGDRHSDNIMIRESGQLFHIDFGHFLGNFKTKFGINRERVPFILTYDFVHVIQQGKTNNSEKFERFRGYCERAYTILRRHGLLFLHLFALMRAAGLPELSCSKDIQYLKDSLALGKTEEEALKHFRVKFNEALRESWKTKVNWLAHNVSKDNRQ
Procedure: (§1) (1) Preparation of 1× kinase buffer50 mM HEPES, pH 7.53 mM MgCl21 mM EGTA100 mM NaCl0.03% CHAPS2 mM DTT(2) Preparation of test compound1) Dissolution and dilution of compound:The compound was dissolved in DMSO to yield a stock solution. Before the assay, the stock solution of the compound was diluted with DMSO in a 384-well plate to yield a 100× solution at a concentration that is 100 times a target concentration for assay.50 μL of DMSO was added, respectively, into two blank wells in the same 384 well plate, corresponding to the total reaction control without compound and the blank control without enzyme.2) Preparation of test plate: 50 nL of the compound solution in each of the above wells was taken to a test plate.(3) Kinase reaction1) PI3Kα, PI3Kβ, PI3Kγ, and PI3Kδ kinases were dissolved, respectively, in 1× kinase buffer to yield a 2× enzyme solution at a concentration that is twice the final concentration. 2.5 µL of the 2× enzyme solution was taken to each well of the test plate. The blank control without enzyme was added with 2.5 μL of the 1× kinase buffer instead of the enzyme solution. The test plate was shaken for mixing evenly.2) PIP2 substrate and ATP were dissolved in the 1× kinase buffer to yield a 2× substrate solution that is twice the final concentration. 2.5 μL of the 2× substrate solution was taken to each well of the test plate. The test plate was shaken for mixing evenly.3) Kinase reactionEach well of the test plate was covered and incubated at room temperature for 1 h.(4) Kinase detection1) The ADP-Glo reagent was equilibrated at room temperature.2) 5 μL of ADP-Glo reagent was added to each well of the test plate to terminate the reaction.3) The plate was centrifuged for a short time to mix evenly, shaken gently, and equilibrated for 120 min.4) 10 μL of kinase detection reagent was added to each well, with shaking for 1 min, after equilibrating for 30 min, […] detection was performed.(5) Reading of the reaction wells(6) Calculation of inhibitory rates by means of curve fitting to the read values

[5] = target: Phosphatidylinositol 4,5-bisphosphate 3-kinase catalytic subunit gamma isoform (Homo sapiens, UniProt P48736); assay: as above
Procedure: as §1

[6] = target: Phosphatidylinositol 4,5-bisphosphate 3-kinase catalytic subunit alpha isoform (Homo sapiens, UniProt P42336); assay: as above
Procedure: as §1

[7] = target: Phosphatidylinositol 4,5-bisphosphate 3-kinase catalytic subunit beta isoform (Homo sapiens, UniProt P42338); assay: as above
Procedure: as §1

Sequence of Serine-protein kinase ATM (Q13315 whole entry): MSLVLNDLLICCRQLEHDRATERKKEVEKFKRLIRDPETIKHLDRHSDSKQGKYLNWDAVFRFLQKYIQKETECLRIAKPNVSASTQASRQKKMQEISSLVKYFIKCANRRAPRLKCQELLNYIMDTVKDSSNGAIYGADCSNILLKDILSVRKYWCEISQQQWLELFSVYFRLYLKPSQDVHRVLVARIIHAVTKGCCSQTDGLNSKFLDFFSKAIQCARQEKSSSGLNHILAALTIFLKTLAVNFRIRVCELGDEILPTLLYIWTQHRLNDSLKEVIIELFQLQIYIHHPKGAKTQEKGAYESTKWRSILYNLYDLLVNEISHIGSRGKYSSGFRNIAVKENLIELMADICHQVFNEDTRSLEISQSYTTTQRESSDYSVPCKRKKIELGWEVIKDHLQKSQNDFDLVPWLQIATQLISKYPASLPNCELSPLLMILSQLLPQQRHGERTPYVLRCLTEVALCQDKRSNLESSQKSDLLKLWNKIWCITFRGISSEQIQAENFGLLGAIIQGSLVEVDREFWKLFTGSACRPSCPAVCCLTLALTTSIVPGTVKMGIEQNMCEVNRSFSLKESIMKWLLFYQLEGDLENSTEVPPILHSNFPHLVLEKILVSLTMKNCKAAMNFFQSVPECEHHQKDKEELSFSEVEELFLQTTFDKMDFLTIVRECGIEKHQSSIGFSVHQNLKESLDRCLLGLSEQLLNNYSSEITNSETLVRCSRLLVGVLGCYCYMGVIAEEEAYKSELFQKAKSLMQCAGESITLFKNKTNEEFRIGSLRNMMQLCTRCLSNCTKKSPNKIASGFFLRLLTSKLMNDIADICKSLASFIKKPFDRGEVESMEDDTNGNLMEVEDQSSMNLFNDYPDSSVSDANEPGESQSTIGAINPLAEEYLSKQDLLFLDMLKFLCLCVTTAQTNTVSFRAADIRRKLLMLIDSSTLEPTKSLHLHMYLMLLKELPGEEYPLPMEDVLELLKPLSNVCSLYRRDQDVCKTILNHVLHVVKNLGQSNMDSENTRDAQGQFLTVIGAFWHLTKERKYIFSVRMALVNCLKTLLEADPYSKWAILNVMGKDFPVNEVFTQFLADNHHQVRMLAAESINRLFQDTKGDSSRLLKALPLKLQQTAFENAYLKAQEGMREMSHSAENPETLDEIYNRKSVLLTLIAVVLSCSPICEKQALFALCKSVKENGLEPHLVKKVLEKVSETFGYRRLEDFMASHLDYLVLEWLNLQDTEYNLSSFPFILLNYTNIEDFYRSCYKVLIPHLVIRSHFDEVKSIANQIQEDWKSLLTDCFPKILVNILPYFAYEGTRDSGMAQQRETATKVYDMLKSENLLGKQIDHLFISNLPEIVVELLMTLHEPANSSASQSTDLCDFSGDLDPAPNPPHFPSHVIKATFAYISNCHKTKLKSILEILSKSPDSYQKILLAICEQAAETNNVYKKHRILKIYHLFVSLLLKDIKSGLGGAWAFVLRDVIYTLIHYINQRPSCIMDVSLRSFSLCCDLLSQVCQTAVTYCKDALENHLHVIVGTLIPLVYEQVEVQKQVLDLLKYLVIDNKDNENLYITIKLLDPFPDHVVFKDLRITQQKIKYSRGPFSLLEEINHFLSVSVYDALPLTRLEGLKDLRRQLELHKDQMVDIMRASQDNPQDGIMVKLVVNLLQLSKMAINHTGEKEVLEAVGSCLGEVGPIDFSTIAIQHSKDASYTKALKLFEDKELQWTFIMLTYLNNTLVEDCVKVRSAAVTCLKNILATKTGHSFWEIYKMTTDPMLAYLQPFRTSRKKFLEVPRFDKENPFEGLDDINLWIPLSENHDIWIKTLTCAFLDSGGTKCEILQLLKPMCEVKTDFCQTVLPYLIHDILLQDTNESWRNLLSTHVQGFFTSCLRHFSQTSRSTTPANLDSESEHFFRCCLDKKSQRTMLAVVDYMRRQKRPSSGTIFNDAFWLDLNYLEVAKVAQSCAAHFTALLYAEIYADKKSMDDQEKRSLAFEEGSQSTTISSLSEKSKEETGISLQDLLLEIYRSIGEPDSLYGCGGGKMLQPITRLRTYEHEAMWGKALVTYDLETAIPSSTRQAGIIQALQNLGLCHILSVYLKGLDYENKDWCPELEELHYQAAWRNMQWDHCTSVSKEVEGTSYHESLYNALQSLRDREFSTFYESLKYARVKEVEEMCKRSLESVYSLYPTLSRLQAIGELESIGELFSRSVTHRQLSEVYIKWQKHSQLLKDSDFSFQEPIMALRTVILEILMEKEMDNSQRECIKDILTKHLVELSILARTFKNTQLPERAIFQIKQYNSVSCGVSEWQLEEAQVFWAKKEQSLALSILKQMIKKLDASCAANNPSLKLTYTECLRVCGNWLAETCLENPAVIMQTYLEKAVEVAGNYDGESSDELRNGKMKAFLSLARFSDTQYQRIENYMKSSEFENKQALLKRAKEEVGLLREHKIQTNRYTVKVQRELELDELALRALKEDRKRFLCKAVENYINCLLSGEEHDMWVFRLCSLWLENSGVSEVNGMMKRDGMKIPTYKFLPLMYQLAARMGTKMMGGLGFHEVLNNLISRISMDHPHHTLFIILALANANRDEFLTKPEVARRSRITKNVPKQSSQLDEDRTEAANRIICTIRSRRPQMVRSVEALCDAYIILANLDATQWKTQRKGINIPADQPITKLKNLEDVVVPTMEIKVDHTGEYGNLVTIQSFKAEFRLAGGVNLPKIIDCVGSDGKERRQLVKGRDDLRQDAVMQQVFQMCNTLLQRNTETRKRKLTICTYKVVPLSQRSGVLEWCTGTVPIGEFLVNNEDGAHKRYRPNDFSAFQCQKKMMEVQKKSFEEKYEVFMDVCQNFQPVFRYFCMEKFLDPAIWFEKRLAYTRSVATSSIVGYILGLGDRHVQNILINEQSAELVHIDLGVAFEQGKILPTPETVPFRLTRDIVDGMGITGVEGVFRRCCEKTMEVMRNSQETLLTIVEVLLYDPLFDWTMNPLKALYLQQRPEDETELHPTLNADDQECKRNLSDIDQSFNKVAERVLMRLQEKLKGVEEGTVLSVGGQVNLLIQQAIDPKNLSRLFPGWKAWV
Sequence of Phosphatidylinositol 4,5-bisphosphate 3-kinase catalytic subunit beta isoform (P42338 whole entry, canonical isoform): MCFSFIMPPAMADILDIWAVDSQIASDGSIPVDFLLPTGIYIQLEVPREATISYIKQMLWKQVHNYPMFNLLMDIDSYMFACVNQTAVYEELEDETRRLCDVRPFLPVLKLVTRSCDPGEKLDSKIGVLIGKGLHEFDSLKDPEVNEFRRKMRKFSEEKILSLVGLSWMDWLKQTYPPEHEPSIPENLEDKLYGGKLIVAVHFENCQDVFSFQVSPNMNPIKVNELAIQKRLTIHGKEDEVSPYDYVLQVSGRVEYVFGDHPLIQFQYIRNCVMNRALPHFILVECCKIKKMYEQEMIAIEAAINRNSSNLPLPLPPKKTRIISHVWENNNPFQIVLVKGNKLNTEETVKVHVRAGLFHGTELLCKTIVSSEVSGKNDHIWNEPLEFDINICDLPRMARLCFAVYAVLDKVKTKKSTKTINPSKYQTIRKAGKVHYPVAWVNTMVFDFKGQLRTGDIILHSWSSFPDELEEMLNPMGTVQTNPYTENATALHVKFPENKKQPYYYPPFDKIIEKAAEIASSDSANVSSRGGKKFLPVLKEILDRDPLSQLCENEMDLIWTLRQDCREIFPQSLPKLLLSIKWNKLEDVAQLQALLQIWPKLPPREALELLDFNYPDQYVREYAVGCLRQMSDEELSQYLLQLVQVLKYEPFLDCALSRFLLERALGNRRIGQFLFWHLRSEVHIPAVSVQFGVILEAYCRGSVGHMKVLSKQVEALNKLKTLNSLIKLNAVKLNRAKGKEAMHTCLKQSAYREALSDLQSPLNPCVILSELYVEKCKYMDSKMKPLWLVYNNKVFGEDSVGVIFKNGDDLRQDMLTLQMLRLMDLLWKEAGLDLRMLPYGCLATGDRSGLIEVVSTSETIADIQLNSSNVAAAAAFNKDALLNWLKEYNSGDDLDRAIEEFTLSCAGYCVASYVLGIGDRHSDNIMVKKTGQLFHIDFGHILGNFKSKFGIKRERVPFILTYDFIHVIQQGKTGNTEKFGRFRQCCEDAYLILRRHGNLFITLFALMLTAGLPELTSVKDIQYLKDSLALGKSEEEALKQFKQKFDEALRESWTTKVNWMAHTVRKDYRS

Row | IC50 [2] [nM] | Compound | further results
1 | 0.61 | CC[C@@H]1CNc2c(-c3ccc(OCCCN4CCCCC4)nc3)ccc3ncc4c(c23)n1c(=O)n4C [US20240294545, Compound A-201] | 
2 | 0.45 | CC[C@@H]1CNc2c(-c3ccc(OCCCN4CCCCC4)nc3)c(F)cc3ncc4c(c23)n1c(=O)n4C [US20240294545, Compound A-194] | 
3 | 0.78 | Cn1c(=O)n2c3c4c(c(-c5ccc(OCCCN6CCCCC6)nc5)c(F)cc4ncc31)OCC21CCOCC1 [US20240294545, Compound A-204] | 

The next lines start with the compound.

Row | Compound | IC50 [2] [nM] | further results
4 | Cn1c(=O)n2c3c4c(c(-c5ccc(OCCCN6CCCCC6)nc5)c(F)cc4ncc31)OC1CCCCC12 (stereo not given) [US20240294545, Compound A-21] | 0.45 | IC50 [1]: > 10000 nM; IC50 [3]: 2230 nM; IC50 [4]: > 10000 nM; IC50 [5]: > 10000 nM; IC50 [6]: > 10000 nM; IC50 [7]: > 10000 nM
5 | COc1cc2ncc3c4c2c(oc2ccccc2n4c(=O)n3C)c1-c1cnn(C)c1 [US20240294545, Compound A-33] | 0.08 | 
6 | Cn1c(=O)n2c3c4c(c(-c5ccc(OCCCN6CCC7(CC6)COC7)nc5)c(F)cc4ncc31)OCC21CCC1 [US20240294545, Compound A-167] | 0.33 | 
7 | Cn1c(=O)n2c3c4c(c(-c5ccc(OCCCN6CC7CC7C6)nc5)c(F)cc4ncc31)OCC21CCC1 (stereo not given) [US20240294545, Compound A-170] | 0.7 | 
8 | Cn1c(=O)n2c3c4c(c(-c5ccc(OCCCN6CCC(F)CC6)nc5)c(F)cc4ncc31)OCC21CCC1 [US20240294545, Compound A-165] | 0.37 | 
9 | Cn1c(=O)n2c3c4c(c(-c5ccc(OCCCN6CCC(C#N)CC6)nc5)c(F)cc4ncc31)OCC21CCC1 [US20240294545, Compound A-166] | 0.21 | 
